Assay results from US20060264460A1 (Wyeth, priority 2005, published 2006).

Molecular target: T1, human Cot/Tpl2 kinase (Homo sapiens, UniProt P41279)
T1 construct: human Cot/Tpl2 kinase construct encoding residues 30-398; 6His (N); made in house; host or cells: Sf9 insect cells, baculovirus system (BD Biosciences)
Experiment: Tpl2/Cot kinase assay: GST-MEK1 phosphorylation detected by ELISA (DELFIA Eu)
Format: biochemical
Outline: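 Substrate phosphorylation (GST-MEK1 Ser217/221) quantified by DELFIA europium ELISA, yielding IC50 values. Reaction: 1 h at 30° C, pH 7.2 MOPS buffer, 50 uM ATP, 35 nM GST-MEK1, 0.4 nM monomeric His-Tpl2 purified from Sf9 cells, compounds at 1% final DMSO; stopped with EDTA.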

[1] = 0.4 nM Tpl2, 35 nM GST-MEK1, 50 uM ATP, 1 h at 30° C.
[2] = Table 2, Tpl2/Cot kinase, GST-MEK1 substrate, 50 uM ATP
[3] = Tpl2/Cot kinase, GST-MEK1 substrate, 50 uM ATP
[4] = Tpl2/Cot kinase, GST-MEK1 substrate, 50 uM ATP, 1 h at 30° C., Table 2

T1 sequence (P41279 30-398): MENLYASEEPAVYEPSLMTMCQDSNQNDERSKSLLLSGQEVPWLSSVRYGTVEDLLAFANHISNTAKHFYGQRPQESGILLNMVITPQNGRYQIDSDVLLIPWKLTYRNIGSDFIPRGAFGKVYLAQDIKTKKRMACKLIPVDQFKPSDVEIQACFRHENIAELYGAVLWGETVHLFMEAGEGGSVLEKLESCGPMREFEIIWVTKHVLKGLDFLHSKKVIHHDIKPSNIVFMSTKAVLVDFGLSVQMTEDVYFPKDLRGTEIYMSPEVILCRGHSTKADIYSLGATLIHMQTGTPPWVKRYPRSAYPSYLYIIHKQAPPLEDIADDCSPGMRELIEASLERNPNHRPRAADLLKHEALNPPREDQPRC

Row | IC50 [1] [nM] | IC50 [2] [nM] | Compound | further results
1 | 75 |  | N#Cc1cnc2c(Br)cc(NCc3ccccn3)cc2c1Nc1ccc(F)c(Cl)c1 [Example 78, 8-bromo-4-(3-chloro-4-fluorophenylamino)-6-(pyridin-2-ylmethylamino)quinoline-3-carbonitrile] | 
2 | 170 |  | Cc1cccc(CNc2cc(Cl)c3ncc(C#N)c(Nc4ccc(F)c(Cl)c4)c3c2)n1 [Example 192, 8-chloro-4-(3-chloro-4-fluorophenylamino)-6-((6-methylpyridin-2-yl)methylamino)quinoline-3-carbonitrile] | 
3 | 19700 |  | N#Cc1cnc2c(C(F)(F)F)cc(NCc3ccccn3)cc2c1Nc1ccc(F)c(Cl)c1 [Example 231, 4-[(3-chloro-4-fluorophenyl)amino]-6-[(pyridin-2-ylmethyl)amino]-8-(trifluoromethyl)quinoline-3-carbonitrile] | 
4 |  | 120 | Cc1cc(CNc2cc(Cl)c3ncc(C#N)c(Nc4ccc(F)c(Cl)c4)c3c2)n(C)n1 [Example 430] | 
5 | 210 |  | N#Cc1cnc2c(Br)cc(NCc3cn(CC(O)CN4CCOCC4)nn3)cc2c1Nc1ccc(F)c(Cl)c1 (stereo not drawn) [Example 319, 8-bromo-4-[(3-chloro-4-fluorophenyl)amino]-6-({[1-(2-hydroxy-3-morpholin-4-ylpropyl)-1H-1,2,3-triazol-4-yl]methyl}amino)quinoline-3-carbonitrile] | 
6 |  | 420 | N#Cc1cnc2c(Cl)cc(NC3CCCC3N=[N+]=[N-])cc2c1Nc1ccc(F)c(Cl)c1 (stereo not drawn) [Example 629] | 
7 |  | 470 | CNC(=O)CNc1cc(Cl)c2ncc(C#N)c(Nc3ccc(F)c(Cl)c3)c2c1 [Example 473] | 
8 |  | 14 | Cc1c(CNc2ccc3ncc(C#N)c(Nc4ccc(F)c(Cl)c4)c3c2)ncn1CCN1CCOCC1 [Example 373] | 
9 |  | 100 | COCCOCCn1cc(CNc2cc(Br)c3ncc(C#N)c(Nc4ccc(F)c(Cl)c4)c3c2)nn1 [Example 565] | 
10 |  |  | N#Cc1ccc(S(=O)(=O)NCCNc2cc(Cl)c3ncc(C#N)c(Nc4ccc(F)c(Cl)c4)c3c2)cc1 [Example 858] | IC50 [3]: 790 nM
11 | 2200 |  | C/C=C/c1cc(NCc2cccnc2)cc2c(Nc3ccc(F)c(Cl)c3)c(C#N)cnc12 [Example 109, (E)-4-(3-chloro-4-fluorophenylamino)-8-(prop-1-enyl)-6-(pyridin-3-ylmethylamino)quinoline-3-carbonitrile] | 
12 |  |  | N#Cc1cnc2c(Cl)cc(NCc3cn(C4CCN(CCO)CC4)nn3)cc2c1Nc1ccc(F)c(Cl)c1 [Example 992] | IC50 [4]: 2 nM
13 | 1800 |  | N#Cc1cnc2ccc(NCc3c[nH]nc3-c3cccs3)cc2c1Nc1ccc(F)c(Cl)c1 [Example 35, 4-(3-Chloro-4-fluoro-phenylamino)-6-[(3-thiophen-2-yl-1H-pyrazol-4-ylmethyl)-amino]-quinoline-3-carbonitrile] | 
14 | 13 |  | COc1cc(NCc2cnc[nH]2)cc2c(Nc3ccc(F)c(Cl)c3)c(C#N)cnc12 [Example 47, 4-(3-Chloro-4-fluoro-phenylamino)-6-[(3H-imidazol-4-ylmethyl)-amino]-8-methoxy-quinoline-3-carbonitrile] | 
15 |  |  | N#Cc1cnc2c(Cl)cc(NCc3cn(CCCN4C(=O)c5ccccc5C4=O)nn3)cc2c1Nc1ccc(F)c(Cl)c1 [Example 852] | IC50 [3]: 120 nM
16 |  | 1700 | N#Cc1ccccc1CNc1ccc2ncc(C#N)c(NC3CCCC3)c2c1 [Example 416] | 
17 | > 40000 |  | N#Cc1cnc2ccc(NCC3CCNC3)cc2c1Nc1ccc(F)c(Cl)c1 (stereo not drawn) [Example 62, 4-(3-Chloro-4-fluoro-phenylamino)-6-[(pyrrolidin-3-ylmethyl)-amino]-quinoline-3-carbonitrile] | 
18 |  | 5200 | COc1cc(NCCN2CCOCC2)cc2c(Nc3ccc(F)c(Cl)c3)c(C#N)cnc12 [Example 383] | 
19 |  |  | N#Cc1cnc2c(Cl)cc(NCc3cn(CCN4CCCCCC4)nn3)cc2c1NC1CCCC1 [Example 945] | IC50 [4]: 630 nM
20 |  |  | N#Cc1cnc2c(Cl)cc(NCC3CCN(C(=O)c4cccnc4)CC3)cc2c1Nc1ccc(F)c(Cl)c1 [Example 850] | IC50 [3]: 130 nM
21 |  | 800 | N#Cc1cnc2c(Br)cc(NCc3cc(C4CCNCC4)n[nH]3)cc2c1Nc1ccc(F)c(Cl)c1 [Example 537] | 
22 |  | 21900 | CC(C)(C)Nc1c(C#N)cnc2ccc(NCc3ccc(S(N)(=O)=O)cc3)cc12 [Example 408] | 
23 |  | 40 | N#Cc1cnc2c(Cl)cc(NCc3cn(CCN4CCCC4)nn3)cc2c1Nc1ccc(F)c(Cl)c1 [Example 515] | 
24 |  |  | C[C@H](CNc1ccccn1)Nc1cc(Cl)c2ncc(C#N)c(Nc3ccc(F)c(Cl)c3)c2c1 [Example 933] | IC50 [4]: 1990 nM
25 |  |  | N#Cc1cnc2c(Cl)cc(N(Cc3cn(C4CCN(C(=O)OCCF)CC4)nn3)C(=O)OCCF)cc2c1Nc1ccc(F)c(Cl)c1 [Example 983] | IC50 [4]: > 3000 nM
26 | 83 |  | COc1ccc(CNc2cc(Cl)c3ncc(C#N)c(Nc4ccc(F)c(Cl)c4)c3c2)cc1OCCN1CCOCC1 [Example 273, 8-Chloro-4-[(3-chloro-4-fluorophenyl)amino]-6-{[4-methoxy-3-(2-morpholin-4-ylethoxy)benzyl]amino}quinoline-3-carbonitrile] | 

Row | IC50 [1] [nM] | IC50 [2] [nM] | Compound | further results
27 |  |  | COCCNC(=O)Cn1cc(CNc2cc(Cl)c3ncc(C#N)c(Nc4ccc(F)c(Cl)c4)c3c2)nn1 [Example 816] | IC50 [3]: 15 nM
28 |  | 24 | CN(C)CCn1cc(CNc2cc(Br)c3ncc(C#N)c(Nc4ccc(F)c(Cl)c4)c3c2)nn1 [Example 481] | 
29 | 1500 |  | CC(C)(C)Nc1c(C#N)cnc2c(Br)cc(NCc3cnc[nH]3)cc12 [Example 98, 6-((1H-imidazol-5-yl)methylamino)-8-bromo-4-(tert-butylamino)quinoline-3-carbonitrile] | 
30 |  | 130 | CN(C)CCCc1nc[nH]c1CNc1cc(Cl)c2ncc(C#N)c(Nc3ccc(F)c(Cl)c3)c2c1 [Example 461] | 
31 | 120 |  | CN1CCN(C(=O)Cn2ccnc2CNc2ccc3ncc(C#N)c(Nc4ccc(F)c(Cl)c4)c3c2)CC1 [Example 141, 4-(3-chloro-4-fluorophenylamino)-6-((1-(2-(4-methylpiperazin-1-yl)-2-oxoethyl)-1H-imidazol-2-yl)methylamino)quinoline-3-carbonitrile] | 
32 |  |  | CS(=O)(=O)CCn1cnc(CNc2cc(Br)c3ncc(C#N)c(Nc4ccc(F)c(Cl)c4)c3c2)c1 [Example 702] | IC50 [3]: 43 nM
33 | 65 |  | COCC(=O)NCCn1cc(CNc2cc(Cl)c3ncc(C#N)c(Nc4ccc(F)c(Cl)c4)c3c2)nn1 [Example 219, N-(2-(4-((8-chloro-4-(3-chloro-4-fluorophenylamino)-3-cyanoquinolin-6-ylamino)methyl)-1H-1,2,3-triazol-1-yl)ethyl)-2-methoxyacetamide] | 
34 | 4.1 |  | N#Cc1cnc2c(Br)cc(NCc3cccc[n+]3[O-])cc2c1Nc1ccc(F)c(Cl)c1 [Example 101, 8-bromo-4-(3-chloro-4-fluorophenylamino)-6-(1-oxypyridin-2-ylmethylamino)quinoline-3-carbonitrile] | 
35 |  |  | N#Cc1cnc2c(Br)cc(NCc3cn(CCc4ccccn4)nn3)cc2c1Nc1ccc(F)c(Cl)c1 [Example 728] | IC50 [3]: 3.4 nM
36 |  | > 3000 | Fc1ccc(Nc2ncncc2-c2ccc(NCc3cnc[nH]3)cc2)cc1Cl [Example 527] | 
37 |  |  | N#Cc1cnc2c(Br)cc(NCc3cn(CC4CCCN4)nn3)cc2c1Nc1ccc(F)c(Cl)c1 (stereo not drawn) [Example 722] | IC50 [3]: 9.2 nM
38 | > 40000 |  | COc1cc(NCc2cccnc2)cc2c(Nc3ccc(C)c(O)c3)c(C#N)cnc12 [Example 32, 4-(3-Hydroxy-4-methyl-phenylamino)-8-methoxy-6-[(pyridin-3-ylmethyl)-amino]-quinoline-3-carbonitrile] | 
39 |  | 110 | N#Cc1cnc2c(Br)cc(NCc3cnc4cnccn34)cc2c1Nc1ccc(F)c(Cl)c1 [Example 528] | 
40 |  |  | CCCN1C2CCC1CC(n1cc(CNc3cc(Cl)c4ncc(C#N)c(Nc5ccc(F)c(Cl)c5)c4c3)nn1)C2 (stereo not drawn) [Example 1055] | IC50 [4]: 8 nM
41 |  | 25 | N#Cc1cnc2c(Cl)cc(NCc3cn(CCc4ccccn4)nn3)cc2c1Nc1ccc(F)c(Cl)c1 [Example 563] | 
42 |  |  | N#Cc1cnc2c(Cl)cc(NC3CCN(Cc4cccnc4)CC3)cc2c1Nc1ccc(F)c(Cl)c1 [Example 869] | IC50 [3]: 820 nM
43 | > 40000 |  | CN1CCN(c2cc3ncc(C#N)c(Nc4ccc(F)c(Cl)c4)c3cc2NCc2cnc[nH]2)CC1 [Example 161, 6-((1H-imidazol-5-yl)methylamino)-4-(3-chloro-4-fluorophenylamino)-7-(4-methylpiperazin-1-yl)quinoline-3-carbonitrile] | 
44 |  |  | COCCCNC(=O)CNc1cc(Cl)c2ncc(C#N)c(Nc3ccc(F)c(Cl)c3)c2c1 [Example 779] | IC50 [3]: 230 nM
45 |  |  | CN1CCC[C@H]1Cn1cc(CNc2cc(Cl)c3ncc(C#N)c(Nc4ccc(F)c(Cl)c4)c3c2)nn1 [Example 894] | IC50 [3]: 1.8 nM
46 |  |  | CCN1CC(CCn2cc(CNc3cc(Cl)c4ncc(C#N)c(Nc5ccc(F)c(Cl)c5)c4c3)nn2)N(c2ccccc2)C1=S (stereo not drawn) [Example 792] | IC50 [3]: 130 nM
47 |  |  | N#Cc1cnc2c(Cl)cc(NCCNS(=O)(=O)c3cccnc3)cc2c1Nc1ccc(F)c(Cl)c1 [Example 855] | IC50 [3]: > 3000 nM
48 | 190 |  | CS(=O)(=O)c1cc(NCc2cnc[nH]2)cc2c(Nc3ccc(F)c(Cl)c3)c(C#N)cnc12 [Example 286, 4-[(3-chloro-4-fluorophenyl)amino]-6-[(1H-imidazol-5-ylmethyl)amino]-8-(methylsulfonyl)quinoline-3-carbonitrile] | 
49 |  |  | CS(=O)(=O)CCn1cc(CNc2cc(Br)c3ncc(C#N)c(Nc4ccc(F)c(Cl)c4)c3c2)nn1 [Example 694] | IC50 [3]: 91 nM
50 |  |  | CN(C)CCc1nc[nH]c1CNc1cc(Br)c2ncc(C#N)c(Nc3ccc(F)c(Cl)c3)c2c1 [Example 745] | IC50 [3]: 240 nM
51 |  | 220 | Cn1cncc1CNc1cc(Cl)c2ncc(C#N)c(Nc3ccc(F)c(Cl)c3)c2c1 [Example 439] | 
